Blank lines part the entries; values can stand above or below the compound they belong to.
Molecular target: purified human, His-tagged PRC2 complex (Homo sapiens (Human), UniProt O75530)
Assay: Hot Spot HMT assay, inhibition of PRC2 enzymatic activity
Assay type: biochemical
Conditions: 10 nM PRC2 complex, 1 μM 3H-SAM, core histone H3, 10-point dose-response
How it was run: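 Five-subunit PRC2 complex (EZH2, EED, SUZ12, AEBP2, RbAp48; 10 nM) preincubated 20 min at 30° C with compound (top 1.0 μM) and 0.05 mg/ml core histone H3 in Tris-HCl, 1% DMSO. Started with 1 μM [3H]SAM, 1 hr at 30° C; tritiated H3 measured by filter binding and scintillation.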

Chain of purified human, His-tagged PRC2 complex (O75530 whole entry): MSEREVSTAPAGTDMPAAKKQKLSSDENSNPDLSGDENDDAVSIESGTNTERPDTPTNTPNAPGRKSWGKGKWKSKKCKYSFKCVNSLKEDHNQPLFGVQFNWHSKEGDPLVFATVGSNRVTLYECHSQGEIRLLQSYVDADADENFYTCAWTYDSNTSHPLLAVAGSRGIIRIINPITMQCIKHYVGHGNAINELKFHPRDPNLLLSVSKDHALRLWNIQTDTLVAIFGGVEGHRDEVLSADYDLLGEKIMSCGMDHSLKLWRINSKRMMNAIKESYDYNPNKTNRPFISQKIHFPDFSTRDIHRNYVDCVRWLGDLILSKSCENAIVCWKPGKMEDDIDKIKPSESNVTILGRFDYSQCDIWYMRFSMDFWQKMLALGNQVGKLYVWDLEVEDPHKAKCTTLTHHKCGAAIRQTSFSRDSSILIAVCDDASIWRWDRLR
Chain of purified human, His-tagged PRC2 complex (Q15910 whole entry partner): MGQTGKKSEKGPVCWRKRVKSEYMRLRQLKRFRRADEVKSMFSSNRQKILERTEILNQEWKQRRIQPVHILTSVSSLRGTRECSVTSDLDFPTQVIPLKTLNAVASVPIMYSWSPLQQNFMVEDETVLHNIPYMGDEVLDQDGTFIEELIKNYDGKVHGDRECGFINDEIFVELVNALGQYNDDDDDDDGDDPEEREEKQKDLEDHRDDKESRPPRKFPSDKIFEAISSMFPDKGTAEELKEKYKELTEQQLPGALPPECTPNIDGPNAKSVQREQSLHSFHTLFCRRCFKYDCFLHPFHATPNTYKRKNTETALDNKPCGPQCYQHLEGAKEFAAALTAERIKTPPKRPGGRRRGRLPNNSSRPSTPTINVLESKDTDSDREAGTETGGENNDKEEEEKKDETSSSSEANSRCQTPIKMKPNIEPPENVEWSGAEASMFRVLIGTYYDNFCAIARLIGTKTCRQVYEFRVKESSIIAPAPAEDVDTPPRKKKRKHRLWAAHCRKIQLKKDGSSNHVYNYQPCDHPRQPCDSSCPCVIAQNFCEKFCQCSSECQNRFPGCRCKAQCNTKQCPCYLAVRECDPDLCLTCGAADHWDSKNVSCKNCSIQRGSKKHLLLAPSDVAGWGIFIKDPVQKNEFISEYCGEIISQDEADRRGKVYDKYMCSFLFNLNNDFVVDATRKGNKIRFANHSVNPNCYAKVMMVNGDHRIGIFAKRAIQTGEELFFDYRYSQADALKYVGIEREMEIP
Chain of purified human, His-tagged PRC2 complex (Q15022 whole entry partner): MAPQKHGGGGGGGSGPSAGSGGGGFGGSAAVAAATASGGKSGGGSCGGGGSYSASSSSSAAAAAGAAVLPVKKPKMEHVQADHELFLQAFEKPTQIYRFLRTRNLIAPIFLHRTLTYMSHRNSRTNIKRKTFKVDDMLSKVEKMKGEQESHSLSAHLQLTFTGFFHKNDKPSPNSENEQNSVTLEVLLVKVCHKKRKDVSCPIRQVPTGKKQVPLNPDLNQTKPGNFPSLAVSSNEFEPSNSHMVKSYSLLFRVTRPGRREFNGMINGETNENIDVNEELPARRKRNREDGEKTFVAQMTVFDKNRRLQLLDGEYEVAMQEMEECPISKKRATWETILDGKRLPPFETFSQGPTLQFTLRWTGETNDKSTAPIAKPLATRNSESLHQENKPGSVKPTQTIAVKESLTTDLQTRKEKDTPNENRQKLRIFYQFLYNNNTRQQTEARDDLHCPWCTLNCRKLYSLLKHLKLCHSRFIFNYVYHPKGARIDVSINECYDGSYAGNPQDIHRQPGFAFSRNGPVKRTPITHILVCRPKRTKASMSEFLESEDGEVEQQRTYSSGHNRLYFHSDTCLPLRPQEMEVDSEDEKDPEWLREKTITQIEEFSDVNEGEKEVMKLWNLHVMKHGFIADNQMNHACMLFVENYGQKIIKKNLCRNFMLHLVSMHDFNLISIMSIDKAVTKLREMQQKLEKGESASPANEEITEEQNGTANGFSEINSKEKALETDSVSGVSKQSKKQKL
Chain of purified human, His-tagged PRC2 complex (Q6ZN18 whole entry partner): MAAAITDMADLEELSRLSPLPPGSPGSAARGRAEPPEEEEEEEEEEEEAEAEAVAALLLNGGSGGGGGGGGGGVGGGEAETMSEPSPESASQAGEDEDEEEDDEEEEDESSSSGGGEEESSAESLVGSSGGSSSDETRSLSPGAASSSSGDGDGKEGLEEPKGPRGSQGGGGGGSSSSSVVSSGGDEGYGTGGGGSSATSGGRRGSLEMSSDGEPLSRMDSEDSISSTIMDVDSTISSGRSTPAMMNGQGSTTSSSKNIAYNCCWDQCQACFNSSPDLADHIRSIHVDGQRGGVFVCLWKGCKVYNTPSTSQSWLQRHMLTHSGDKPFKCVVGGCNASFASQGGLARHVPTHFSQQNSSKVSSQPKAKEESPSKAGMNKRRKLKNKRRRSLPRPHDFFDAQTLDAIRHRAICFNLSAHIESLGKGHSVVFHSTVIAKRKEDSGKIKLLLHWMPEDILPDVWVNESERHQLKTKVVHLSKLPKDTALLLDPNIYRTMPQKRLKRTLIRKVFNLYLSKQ
Chain of purified human, His-tagged PRC2 complex (Q09028 whole entry partner): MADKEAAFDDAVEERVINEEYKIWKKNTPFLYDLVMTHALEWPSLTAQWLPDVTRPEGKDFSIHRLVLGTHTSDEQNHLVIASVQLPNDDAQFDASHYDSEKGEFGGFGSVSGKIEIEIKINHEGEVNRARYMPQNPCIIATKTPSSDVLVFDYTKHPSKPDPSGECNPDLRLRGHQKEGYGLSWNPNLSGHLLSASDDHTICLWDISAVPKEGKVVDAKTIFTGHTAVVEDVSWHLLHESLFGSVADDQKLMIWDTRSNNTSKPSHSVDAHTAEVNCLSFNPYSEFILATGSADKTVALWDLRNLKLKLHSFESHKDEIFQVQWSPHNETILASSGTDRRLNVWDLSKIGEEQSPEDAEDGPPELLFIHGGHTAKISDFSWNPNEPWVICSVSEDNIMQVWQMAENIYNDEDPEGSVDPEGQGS

IC50: 100 to 500 nM
SMILES: CN(C)c1ccc(-c2cnc(NCc3c(F)ccc4c3CCO4)n3cc(C#N)nc23)cn1 [Example 60, 8-(6-(dimethylamino)pyridin-3-yl)-5-(((5-fluoro-2,3-dihydrobenzofuran-4-yl)methyl)amino)imidazo[1,2-c]pyrimidine-2-carbonitrile]

IC50: < 100 nM
SMILES: Cc1ncc(F)cc1-c1cnc(NCc2c(F)ccc3c2CCO3)n2cc(C#N)nc12 [Example 62, 5-(((5-fluoro-2,3-dihydrobenzofuran-4-yl)methyl)amino)-8-(5-fluoro-2-methylpyridin-3-yl)imidazo[1,2-c]pyrimidine-2-carbonitrile]

IC50: < 100 nM
SMILES: N#Cc1cn2c(NCc3c(F)ccc4c3CCO4)ncc(-c3cccnc3C(F)F)c2n1 [Example 64, 8-(2-(difluoromethyl)pyridin-3-yl)-5-(((5-fluoro-2,3-dihydrobenzofuran-4-yl)methyl)amino)imidazo[1,2-c]pyrimidine-2-carbonitrile]

IC50: < 100 nM
SMILES: Cc1ccc(-c2cnc(NCc3c(F)ccc4c3CCO4)n3cc(C#N)nc23)c(C)n1 [Example 67, 8-(2,6-dimethylpyridin-3-yl)-5-(((5-fluoro-2,3-dihydrobenzofuran-4-yl)methyl)amino)imidazo[1,2-c]pyrimidine-2-carbonitrile]

IC50: < 100 nM
SMILES: N#Cc1cn2c(NCc3c(F)ccc4c3CCO4)ncc(-c3cnccn3)c2n1 [Example 68, 5-(((5-fluoro-2,3-dihydrobenzofuran-4-yl)methyl)amino)-8-(pyrazin-2-yl)imidazo[1,2-c]pyrimidine-2-carbonitrile]

IC50: < 100 nM
SMILES: Cc1ncc(-c2cnc(NCc3c(F)ccc4c3CCO4)n3cc(C#N)nc23)cn1 [Example 69, 5-(((5-fluoro-2,3-dihydrobenzofuran-4-yl)methyl)amino)-8-(2-methylpyrimidin-5-yl)imidazo[1,2-c]pyrimidine-2-carbonitrile]

IC50: < 100 nM
SMILES: Cc1ncc(-c2cnc(NCc3c(F)ccc4c3CCO4)n3cc(C#N)nc23)c(C)n1 [Example 71, 8-(2,4-dimethylpyrimidin-5-yl)-5-(((5-fluoro-2,3-dihydrobenzofuran-4-yl)methyl)amino)imidazo[1,2-c]pyrimidine-2-carbonitrile]

IC50: < 100 nM
SMILES: Cc1nn(C)cc1-c1cnc(NCc2c(F)ccc3c2CCO3)n2cc(C#N)nc12 [Example 72, 8-(1,3-dimethyl-1H-pyrazol-4-yl)-5-(((5-fluoro-2,3-dihydrobenzofuran-4-yl)methyl)amino)imidazo[1,2-c]pyrimidine-2-carbonitrile]

IC50: < 100 nM
SMILES: N#Cc1cn2c(NCc3c(F)ccc4c3CCO4)ncc(-c3ccc(CN4CCCC4)cc3)c2n1 [Example 74, 5-(((5-fluoro-2,3-dihydrobenzofuran-4-yl)methyl)amino)-8-(4-(pyrrolidin-1-ylmethyl)phenyl)imidazo[1,2-c]pyrimidine-2-carbonitrile]

IC50: 100 to 500 nM
SMILES: N#Cc1cn2c(NCc3c(F)ccc4c3CCO4)ncc(C3CC3)c2n1 [Example 77, 8-cyclopropyl-5-(((5-fluoro-2,3-dihydrobenzofuran-4-yl)methyl)amino)imidazo[1,2-c]pyrimidine-2-carbonitrile]

IC50: < 100 nM
SMILES: Cc1n[nH]cc1-c1cnc(NCc2c(F)ccc3c2CCO3)n2cc(C#N)nc12 [Example 79, 5-(((5-fluoro-2,3-dihydrobenzofuran-4-yl)methyl)amino)-8-(3-methyl-1H-pyrazol-4-yl)imidazo[1,2-c]pyrimidine-2-carbonitrile]

IC50: < 100 nM
SMILES: N#Cc1cn2c(NCc3c(F)ccc4c3CCO4)ncc(-c3cnn4c3CCC4)c2n1 [Example 80, 8-(5,6-dihydro-4H-pyrrolo[1,2-b]pyrazol-3-yl)-5-(((5-fluoro-2,3-dihydrobenzofuran-4-yl)methyl)amino)imidazo[1,2-c]pyrimidine-2-carbonitrile]

IC50: < 100 nM
SMILES: Cc1cc(-c2cnc(NCc3c(F)ccc4c3CCO4)n3cc(C#N)nc23)n(C)n1 [Example 86, 8-(1,3-dimethyl-1H-pyrazol-5-yl)-5-(((5-fluoro-2,3-dihydrobenzofuran-4-yl)methyl)amino)imidazo[1,2-c]pyrimidine-2-carbonitrile]

IC50: < 100 nM
SMILES: COc1ncc(-c2cnc(NCc3c(F)ccc4c3CCO4)n3cc(C#N)nc23)c(C)n1 [Example 88, 5-(((5-fluoro-2,3-dihydrobenzofuran-4-yl)methyl)amino)-8-(2-methoxy-4-methylpyrimidin-5-yl)imidazo[1,2-c]pyrimidine-2-carbonitrile]

IC50: < 100 nM
SMILES: Cc1nc(OC(C)C)ncc1-c1cnc(NCc2c(F)ccc3c2CCO3)n2cc(C#N)nc12 [Example 89, 5-(((5-fluoro-2,3-dihydrobenzofuran-4-yl)methyl)amino)-8-(2-isopropoxy-4-methylpyrimidin-5-yl)imidazo[1,2-c]pyrimidine-2-carbonitrile]

IC50: 100 to 500 nM
SMILES: COc1cc(Cl)c(-c2cnc(NCc3c(F)ccc4c3CCO4)n3cc(C#N)nc23)cn1 [Example 91, 8-(4-chloro-6-methoxypyridin-3-yl)-5-(((5-fluoro-2,3-dihydrobenzofuran-4-yl)methyl)amino)imidazo[1,2-c]pyrimidine-2-carbonitrile]

The next lines start with the compound.

SMILES: CN(C)Cc1ccc(-c2cnc(NCc3c(F)ccc4c3CCO4)n3cc(C#N)nc23)c(F)c1 [Example 61, 8-(4-((dimethylamino)methyl)-2-fluorophenyl)-5-(((5-fluoro-2,3-dihydrobenzofuran-4-yl)methyl)amino)imidazo[1,2-c]pyrimidine-2-carbonitrile]
IC50: < 100 nM

SMILES: CN(C)Cc1ccc(-c2cnc(NCc3c(F)ccc4c3CCO4)n3cc(C#N)nc23)cc1F [Example 63, 8-(4-((dimethylamino)methyl)-3-fluorophenyl)-5-(((5-fluoro-2,3-dihydrobenzofuran-4-yl)methyl)amino)imidazo[1,2-c]pyrimidine-2-carbonitrile]
IC50: < 100 nM

SMILES: Cc1nn(C[C@H](C)O)c(C)c1-c1cnc(NCc2c(F)ccc3c2CCO3)n2cc(C#N)nc12 [Example 65, (S)-5-(((5-fluoro-2,3-dihydrobenzofuran-4-yl)methyl)amino)-8-(1-(2-hydroxypropyl)-3,5-dimethyl-1H-pyrazol-4-yl)imidazo[1,2-c]pyrimidine-2-carbonitrile]
IC50: 100 to 500 nM

SMILES: Cc1nn(C[C@@H](C)O)c(C)c1-c1cnc(NCc2c(F)ccc3c2CCO3)n2cc(C#N)nc12 [Example 66, (R)-5-(((5-fluoro-2,3-dihydrobenzofuran-4-yl)methyl)amino)-8-(1-(2-hydroxypropyl)-3,5-dimethyl-1H-pyrazol-4-yl)imidazo[1,2-c]pyrimidine-2-carbonitrile]
IC50: 100 to 500 nM

SMILES: CS(=O)(=O)c1ccc(-c2cnc(NCc3c(F)ccc4c3CCO4)n3cc(C#N)nc23)cc1 [Example 73, 5-(((5-fluoro-2,3-dihydrobenzofuran-4-yl)methyl)amino)-8-(4-(methylsulfonyl)phenyl)imidazo[1,2-c]pyrimidine-2-carbonitrile]
IC50: < 100 nM

SMILES: N#Cc1cn2c(NCc3c(F)ccc4c3CCO4)ncc(-c3ccc(CN4CCOCC4)cc3)c2n1 [Example 75, 5-(((5-fluoro-2,3-dihydrobenzofuran-4-yl)methyl)amino)-8-(4-(morpholinomethyl)phenyl)imidazo[1,2-c]pyrimidine-2-carbonitrile]
IC50: < 100 nM

SMILES: Cc1cc(C(=O)N(C)C)ncc1-c1cnc(NCc2c(F)ccc3c2CCO3)n2cc(C#N)nc12 [Example 76, 5-(2-cyano-5-(((5-fluoro-2,3-dihydrobenzofuran-4-yl)methyl)amino)imidazo[1,2-c]pyrimidin-8-yl)-N,N,4-trimethylpicolinamide]
IC50: < 100 nM

SMILES: Cc1cc(-c2cnc(NCc3c(F)ccc4sccc34)n3cc(C#N)nc23)n(C)n1 [Example 81, 8-(1,3-dimethyl-1H-pyrazol-5-yl)-5-(((5-fluorobenzo[b]thiophen-4-yl)methyl)amino)imidazo[1,2-c]pyrimidine-2-carbonitrile]
IC50: > 500 nM

SMILES: N#Cc1cn2c(NCc3c(F)ccc4c3CCO4)ncc(-c3ccc(S(=O)(=O)C(F)(F)F)cc3)c2n1 [Example 82, 5-(((5-fluoro-2,3-dihydrobenzofuran-4-yl)methyl)amino)-8-(4-((trifluoromethyl)sulfonyl)phenyl)imidazo[1,2-c]pyrimidine-2-carbonitrile]
IC50: 100 to 500 nM

SMILES: CN(C)Cc1ccc(-c2cnc(NCc3c(F)ccc4c3CCO4)n3cc(C#N)nc23)c(Cl)c1F [Example 83, 8-(2-chloro-4-((dimethylamino)methyl)-3-fluorophenyl)-5-(((5-fluoro-2,3-dihydrobenzofuran-4-yl)methyl)amino)imidazo[1,2-c]pyrimidine-2-carbonitrile]
IC50: < 100 nM

SMILES: Cc1cc(CN(C)C)c(F)cc1-c1cnc(NCc2c(F)ccc3c2CCO3)n2cc(C#N)nc12 [Example 84, 8-(4-((dimethylamino)methyl)-5-fluoro-2-methylphenyl)-5-(((5-fluoro-2,3-dihydrobenzofuran-4-yl)methyl)amino)imidazo[1,2-c]pyrimidine-2-carbonitrile]
IC50: 100 to 500 nM

SMILES: Cc1c(-c2cnc(NCc3c(F)ccc4c3CCO4)n3cc(C#N)nc23)ccc(CN(C)C)c1F [Example 85, 8-(4-((dimethylamino)methyl)-3-fluoro-2-methylphenyl)-5-(((5-fluoro-2,3-dihydrobenzofuran-4-yl)methyl)amino)imidazo[1,2-c]pyrimidine-2-carbonitrile]
IC50: < 100 nM

SMILES: Cc1cc(S(C)(=O)=O)ccc1-c1cnc(NCc2c(F)ccc3c2CCO3)n2cc(C#N)nc12 [Example 87, 5-(((5-fluoro-2,3-dihydrobenzofuran-4-yl)methyl)amino)-8-(2-methyl-4-(methylsulfonyl)phenyl)imidazo[1,2-c]pyrimidine-2-carbonitrile]
IC50: < 100 nM

SMILES: CC(c1ccc(-c2cnc(NCc3c(F)ccc4c3CCO4)n3cc(C#N)nc23)cc1)N1CCCC1 (stereo not drawn) [Example 90, 5-(((5-fluoro-2,3-dihydrobenzofuran-4-yl)methyl)amino)-8-(4-(1-(pyrrolidin-1-yl)ethyl)phenyl)imidazo[1,2-c]pyrimidine-2-carbonitrile]
IC50: < 100 nM

Reference: patent publication US20240398811A1, “PRC2 INHIBITORS FOR USE IN TREATING BLOOD DISORDERS” (ORIC Pharmaceuticals, Inc., priority 2021, published 2024)
